Measurements from patent publication US7981903B2, “2-[2-{phenylamino}-1H-pyrrolo[2,3-D]pyrimidin-4-yl)amino] benzamide derivatives as IGF-1R inhibitors for the treatment of cancer” (GlaxoSmithKline LLC, priority 2007, dated 2011).

Assays:
human IGF1R (hIGF1R) = molecular target: T1, human IGF1R (hIGF1R) (Homo sapiens, UniProt P08069); test: TR-FRET kinase assay of purified hIGF1R; assay type: biochemical; settings: activated hIGF1R 0.5 nM, 10 μM ATP, values given as pIC50 category, read-out: IGF-1R pIC50 (converted)
T1 construct: containing amino acid residues 957-1367 of human IGF1R; made in house; host or cells: Sf9 cells (baculovirus)
T1 sequence (P08069 957-1367): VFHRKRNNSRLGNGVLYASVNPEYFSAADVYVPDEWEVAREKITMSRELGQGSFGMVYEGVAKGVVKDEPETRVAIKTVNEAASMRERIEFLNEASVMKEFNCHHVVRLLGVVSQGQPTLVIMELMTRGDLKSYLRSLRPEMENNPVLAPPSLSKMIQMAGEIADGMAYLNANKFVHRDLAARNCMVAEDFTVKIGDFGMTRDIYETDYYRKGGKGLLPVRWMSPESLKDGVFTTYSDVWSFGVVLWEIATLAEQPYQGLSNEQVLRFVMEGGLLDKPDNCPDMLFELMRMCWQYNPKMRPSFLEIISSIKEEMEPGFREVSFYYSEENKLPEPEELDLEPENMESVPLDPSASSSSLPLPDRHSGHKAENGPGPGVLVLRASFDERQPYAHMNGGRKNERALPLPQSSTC

human IR (hIR) = molecular target: T2, human IR (hIR) (Homo sapiens, UniProt P06213); test: TR-FRET kinase assay of purified hIR; assay type: biochemical; settings: activated hIR 0.5 nM, 10 μM ATP, values given as pIC50 category
T2 construct: containing amino acid residues 979-1382 of human IR; made in house; host or cells: Sf9 cells (baculovirus), same process as hIGF1R
T2 sequence (P06213 979-1382): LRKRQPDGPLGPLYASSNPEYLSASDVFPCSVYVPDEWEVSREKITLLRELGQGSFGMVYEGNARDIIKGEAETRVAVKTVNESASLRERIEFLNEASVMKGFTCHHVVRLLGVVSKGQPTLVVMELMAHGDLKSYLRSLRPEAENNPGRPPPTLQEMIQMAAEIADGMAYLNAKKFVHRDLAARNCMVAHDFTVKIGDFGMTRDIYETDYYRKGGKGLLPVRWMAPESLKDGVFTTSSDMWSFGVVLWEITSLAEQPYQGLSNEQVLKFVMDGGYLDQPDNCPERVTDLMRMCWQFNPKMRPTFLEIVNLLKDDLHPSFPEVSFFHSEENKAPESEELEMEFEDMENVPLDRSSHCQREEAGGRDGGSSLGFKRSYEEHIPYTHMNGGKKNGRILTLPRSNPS

Colo205 = test: Inhibition of cell proliferation (CellTiter-Glo or InCell analyzer), Colo205; assay type: cell-based; settings: Homo sapiens, COLO 205, 72 h / 3 days, values given as IC50 category
Procedure, shortened: In one

NCI-H929 = test: Inhibition of cell proliferation (CellTiter-Glo or InCell analyzer), NCI-H929; assay type: cell-based; settings: Homo sapiens, 72 h / 3 days, values given as IC50 category
Procedure, shortened: In one

| Compound | IC50 (human IGF1R (hIGF1R)) | IC50 (human IR (hIR)) | IC50 (Colo205) | IC50 (NCI-H929) |
| --- | --- | --- | --- | --- |
| COc1cc2c(cc1Nc1nc(Nc3cccc(F)c3C(N)=O)c3cc[nH]c3n1)N(C(=O)CCN1CCN(C(C)C)CC1)CC2 [Example 188, 2-fluoro-6-[(2-{[1-{3-[4-(1-methylethyl)-1-piperazinyl]propanoyl}-5-(methyloxy)-2,3-dihydro-1H-indol-6-yl]amino}-1H-pyrrolo[2,3-d]pyrimidin-4-yl)amino]benzamide] | 5.01 to 200 nM | 5.01 to 158 nM | 250 to 1000 nM | 250 to 1000 nM |
| CCCN(CCC)[C@@H](C)C(=O)N1CCc2cc(OC)c(Nc3nc(Nc4cccc(F)c4C(=O)NC)c4cc[nH]c4n3)cc21 [Example 191, 2-[(2-{[1-(N,N-dipropyl-L-alanyl)-5-(methyloxy)-2,3-dihydro-1H-indol-6-yl]amino}-1H-pyrrolo[2,3-d]pyrimidin-4-yl)amino]-6-fluoro-N-methylbenzamide] | 5.01 to 200 nM | 5.01 to 158 nM | > 1000 nM | > 1000 nM |
| CNC(=O)c1c(F)cccc1Nc1nc(Nc2cc3c(cc2OC)CCCN3C(=O)[C@@H]2CCCN2C)nc2[nH]ccc12 [Example 202, 2-fluoro-N-methyl-6-[(2-{[6-(methyloxy)-1-(1-methyl-L-prolyl)-1,2,3,4-tetrahydro-7-quinolinyl]amino}-1H-pyrrolo[2,3-d]pyrimidin-4-yl)amino]benzamide] | 5.01 to 200 nM | 5.01 to 158 nM | 250 to 1000 nM | < 250 nM |
| COc1cc(OCCN2CCN(C)CC2)ccc1Nc1nc(Nc2cccc(F)c2C(N)=O)c2cc[nH]c2n1 [Example 203, 2-fluoro-6-({2-[(2-(methyloxy)-4-{[2-(4-methyl-1-piperazinyl)ethyl]oxy}phenyl)amino]-1H-pyrrolo[2,3-d]pyrimidin-4-yl}amino)benzamide] | 5.01 to 200 nM | 1.26 to 3.98 nM | 250 to 1000 nM | < 250 nM |
| COc1cc(N2CCN(S(C)(=O)=O)CC2)ccc1Nc1nc(Nc2cccc(F)c2C(N)=O)c2cc[nH]c2n1 [Example 204, 2-fluoro-6-{[2-({2-(methyloxy)-4-[4-(methylsulfonyl)-1-piperazinyl]phenyl}amino)-1H-pyrrolo[2,3-d]pyrimidin-4-yl]amino}benzamide] | 5.01 to 200 nM | 1.26 to 3.98 nM | < 250 nM | < 250 nM |
| COc1cc(OCCCN2CCN(C)CC2)ccc1Nc1nc(Nc2cccc(F)c2C(N)=O)c2cc[nH]c2n1 [Example 205, 2-fluoro-6-({2-[(2-(methyloxy)-4-{[3-(4-methyl-1-piperazinyl)propyl]oxy}phenyl)amino]-1H-pyrrolo[2,3-d]pyrimidin-4-yl}amino)benzamide] | 5.01 to 200 nM | 1.26 to 3.98 nM | < 250 nM | < 250 nM |
| COc1cc(N2CCCN(S(C)(=O)=O)CC2)ccc1Nc1nc(Nc2cccc(F)c2C(N)=O)c2cc[nH]c2n1 [Example 207, 2-fluoro-6-{[2-({2-(methyloxy)-4-[4-(methylsulfonyl)hexahydro-1H-1,4-diazepin-1-yl]phenyl}amino)-1H-pyrrolo[2,3-d]pyrimidin-4-yl]amino}benzamide] | 5.01 to 200 nM | 5.01 to 158 nM | 250 to 1000 nM | 250 to 1000 nM |
| COc1cc(N2CCCN(C(C)C)CC2)ccc1Nc1nc(Nc2cccc(F)c2C(N)=O)c2cc[nH]c2n1 [Example 208, 2-fluoro-6-[(2-{[4-[4-(1-methylethyl)hexahydro-1H-1,4-diazepin-1-yl]-2-(methyloxy)phenyl]amino}-1H-pyrrolo[2,3-d]pyrimidin-4-yl)amino]benzamide] | 5.01 to 200 nM | 5.01 to 158 nM | 250 to 1000 nM | < 250 nM |
| COc1cc2c(cc1Nc1nc(Nc3cccc(F)c3C(N)=O)c3cc[nH]c3n1)NCCC2 [Example 211, 2-fluoro-6-[(2-{[6-(methyloxy)-1,2,3,4-tetrahydro-7-quinolinyl]amino}-1H-pyrrolo[2,3-d]pyrimidin-4-yl)amino]benzamide] | 5.01 to 200 nM | 5.01 to 158 nM | > 1000 nM | > 1000 nM |

The next lines start with the values.

| IC50 (human IGF1R (hIGF1R)) | IC50 (human IR (hIR)) | IC50 (Colo205) | IC50 (NCI-H929) | Compound |
| --- | --- | --- | --- | --- |
| 0.251 to 1 nM | 1.26 to 3.98 nM | 250 to 1000 nM | 250 to 1000 nM | CCNC(=O)c1c(F)cc(F)cc1Nc1nc(Nc2cc3c(cc2OC)CCCN3C(=O)CN(C)C)nc2[nH]ccc12 [Example 180, 2-[(2-{[1-(N,N-dimethylglycyl)-6-(methyloxy)-1,2,3,4-tetrahydro-7-quinolinyl]amino}-1H-pyrrolo[2,3-d]pyrimidin-4-yl)amino]-N-ethyl-4,6-difluorobenzamide] |
| 5.01 to 200 nM | 5.01 to 158 nM | > 1000 nM | < 250 nM | COc1cc2c(cc1Nc1nc(Nc3cccc(F)c3C(N)=O)c3cc[nH]c3n1)N(C(=O)CN1CCOCC1)CC2 [Example 185, 2-fluoro-6-[(2-{[5-(methyloxy)-1-(4-morpholinylacetyl)-2,3-dihydro-1H-indol-6-yl]amino}-1H-pyrrolo[2,3-d]pyrimidin-4-yl)amino]benzamide] |
| 5.01 to 200 nM | 5.01 to 158 nM | > 1000 nM | 250 to 1000 nM | COc1cc2c(cc1Nc1nc(Nc3cccc(F)c3C(N)=O)c3cc[nH]c3n1)N(C(=O)CN1CCN(C(C)C)CC1)CC2 [Example 186, 2-fluoro-6-[(2-{[1-{[4-(1-methylethyl)-1-piperazinyl]acetyl}-5-(methyloxy)-2,3-dihydro-1H-indol-6-yl]amino}-1H-pyrrolo[2,3-d]pyrimidin-4-yl)amino]benzamide] |
| 5.01 to 200 nM | 5.01 to 158 nM | > 1000 nM | < 250 nM | COc1cc2c(cc1Nc1nc(Nc3cccc(F)c3C(N)=O)c3cc[nH]c3n1)N(C(=O)CCN1CCOCC1)CC2 [Example 187, 2-fluoro-6-{[2-({5-(methyloxy)-1-[3-(4-morpholinyl)propanoyl]-2,3-dihydro-1H-indol-6-yl}amino)-1H-pyrrolo[2,3-d]pyrimidin-4-yl]amino}benzamide] |
| 0.251 to 1 nM | 0.251 to 1 nM | < 250 nM | < 250 nM | COc1cc2c(cc1Nc1nc(Nc3cc(F)cc(F)c3C(N)=O)c3cc[nH]c3n1)N(C(=O)CN(C)C)CC2 [Example 189, 2-[(2-{[1-(N,N-dimethylglycyl)-5-(methyloxy)-2,3-dihydro-1H-indol-6-yl]amino}-1H-pyrrolo[2,3-d]pyrimidin-4-yl)amino]-4,6-difluorobenzamide] |
| 0.251 to 1 nM | 0.251 to 1 nM | 250 to 1000 nM | < 250 nM | CNC(=O)c1c(F)cc(F)cc1Nc1nc(Nc2cc3c(cc2OC)CCN3C(=O)CN(C)C)nc2[nH]ccc12 [Example 190, 2-[(2-{[1-(N,N-dimethylglycyl)-5-(methyloxy)-2,3-dihydro-1H-indol-6-yl]amino}-1H-pyrrolo[2,3-d]pyrimidin-4-yl)amino]-4,6-difluoro-N-methylbenzamide] |
| 5.01 to 200 nM | 1.26 to 3.98 nM | 250 to 1000 nM | < 250 nM | CCCN(CCC)[C@@H](C)C(=O)N1CCc2cc(OC)c(Nc3nc(Nc4cccc(F)c4C(N)=O)c4cc[nH]c4n3)cc21 [Example 192, 2-[(2-{[1-(N,N-dipropyl-L-alanyl)-5-(methyloxy)-2,3-dihydro-1H-indol-6-yl]amino}-1H-pyrrolo[2,3-d]pyrimidin-4-yl)amino]-6-fluorobenzamide] |
| 5.01 to 200 nM | 5.01 to 158 nM | > 1000 nM | > 1000 nM | CNC(=O)c1c(F)cccc1Nc1nc(Nc2cc3c(cc2OC)CCN3C(=O)C(C)(C)O)nc2[nH]ccc12 [Example 193, 2-fluoro-6-[(2-{[1-(2-hydroxy-2-methylpropanoyl)-5-(methyloxy)-2,3-dihydro-1H-indol-6-yl]amino}-1H-pyrrolo[2,3-d]pyrimidin-4-yl)amino]-N-methylbenzamide] |
| 0.251 to 1 nM | 0.251 to 1 nM | < 250 nM | < 250 nM | COc1cc2c(cc1Nc1nc(Nc3cccc4c3C(=O)NC4)c3cc[nH]c3n1)N(C(=O)CN(C)C)CC2 [Example 200, 7-[(2-{[1-(N,N-dimethylglycyl)-5-(methyloxy)-2,3-dihydro-1H-indol-6-yl]amino}-1H-pyrrolo[2,3-d]pyrimidin-4-yl)amino]-2,3-dihydro-1H-isoindol-1-one] |
| 0.251 to 1 nM | 0.251 to 1 nM | < 250 nM | < 250 nM | COc1cc2c(cc1Nc1nc(Nc3cccc(F)c3C(N)=O)c3cc[nH]c3n1)N(C(=O)CN(C)C)CCC2 [Example 210, 2-[(2-{[1-(N,N-dimethylglycyl)-6-(methyloxy)-1,2,3,4-tetrahydro-7-quinolinyl]amino}-1H-pyrrolo[2,3-d]pyrimidin-4-yl)amino]-6-fluorobenzamide] |
| 5.01 to 200 nM | 5.01 to 158 nM | > 1000 nM | 250 to 1000 nM | CNC(=O)c1c(F)cccc1Nc1nc(Nc2cc3c(cc2OC)CCCN3C(=O)CCN(C)C)nc2[nH]ccc12 [Example 213, 2-[(2-{[1-(N,N-dimethyl-β-alanyl)-6-(methyloxy)-1,2,3,4-tetrahydro-7-quinolinyl]amino}-1H-pyrrolo[2,3-d]pyrimidin-4-yl)amino]-6-fluoro-N-methylbenzamide] |
| 5.01 to 200 nM | 5.01 to 158 nM | 250 to 1000 nM | < 250 nM | COc1cc2c(cc1Nc1nc(Nc3cccc(F)c3C(N)=O)c3cc[nH]c3n1)N(C(=O)CCN(C)C)CCC2 [Example 214, 2-[(2-{[1-(N,N-dimethyl-β-alanyl)-6-(methyloxy)-1,2,3,4-tetrahydro-7-quinolinyl]amino}-1H-pyrrolo[2,3-d]pyrimidin-4-yl)amino]-6-fluorobenzamide] |
